How the values were obtained:
[1] = target: constitutive proteasome β5c unit (Homo sapiens, UniProt P20618+P28074); assay: Caliper-based proteasome enzymatic activity assay, β5c; assay type: biochemical; details: human recombinant constitutive proteasome 0.3 nM, FAM-peptide substrate 1 μM, 3 h at rt; read-out: β5c subunit IC50
In short: (§1)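 Recombinant human immunoproteasome or constitutive proteasome (0.3 nM) with 1 μM FAM-peptide in 20 mM Hepes pH 7.4, 0.015% SDS, 0.01% BSA; LMP7/β5c ran 3 h at rt and were stopped with 5 uM carfilzomib, LMP2 ran 2 h and was stopped with 6.7 uM ixazomib. Cleaved product quantified by microfluidic separation; IC50 from percent inhibition.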

[2] = target: immunoproteasome LMP7/B5i subunit (Homo sapiens, UniProt P20618+P28062); assay: Caliper-based proteasome enzymatic activity assay, LMP7; assay type: biochemical; details: human recombinant immunoproteasome 0.3 nM, FAM-peptide substrate 1 μM, 3 h at rt
In short: as §1

CC(C)(C=C(C#N)C(=O)N1CCCC[C@@H]1COC(=O)N[C@@H](Cc1ccccc1C(F)(F)F)B(O)O)N1CCC(F)(F)C1 [Example 110, ((R)-1-(((((R)-1-(2-cyano-4-(3,3-difluoropyrrolidin-1-yl)-4-methylpent-2-enoyl)piperidin-2-yl)methoxy)carbonyl)amino)-2-(2-(trifluoromethyl)phenyl)ethyl)boronic acid]
IC50 [1]: > 5000 nM | IC50 [2]: 22 nM

C=CC(=O)N1CCS(=O)(=O)C[C@@H]1COC(=O)N[C@@H](Cc1coc2ccccc12)B(O)O [Example 111]
IC50 [1]: 90 nM | IC50 [2]: 4.2 nM

C=CC(=O)N1CCC(F)(F)C[C@@H]1COC(=O)N[C@@H](Cc1coc2ccccc12)B(O)O [Example 112, ((R)-1-(((((R)-1-acryloyl-4,4-difluoropiperidin-2-yl)methoxy)carbonyl)amino)-2-(benzofuran-3-yl)ethyl)boronic acid]
IC50 [1]: 95 nM | IC50 [2]: 2.5 nM

CC(C)(C=C(C#N)C(=O)N1CCCC[C@@H]1COC(=O)N[C@@H](Cc1ccc(F)cc1F)B(O)O)N1CCC(F)(F)C1 [Example 113, ((R)-1-(((((R)-1-(2-cyano-4-(3,3-difluoropyrrolidin-1-yl)-4-methylpent-2-enoyl)piperidin-2-yl)methoxy)carbonyl)amino)-2-(2,4-difluorophenyl)ethyl)boronic acid]
IC50 [1]: > 5000 nM | IC50 [2]: > 5000 nM

CC(C)(C=C(C#N)C(=O)N1C[C@@H]2C[C@@H]2[C@@H]1COC(=O)N[C@@H](Cc1ccc(C(F)(F)F)cc1)B(O)O)N1CCOCC1 [Example 114]
IC50 [1]: 2540 nM | IC50 [2]: 2.3 nM

C=CC(=O)N1C[C@@H]2C[C@@H]2[C@@H]1COC(=O)N[C@@H](Cc1ccc(C(F)(F)F)cc1)B(O)O [Example 115, ((R)-1-(((((1S,2R,5R)-3-acryloyl-3-azabicyclo[3.1.0]hexan-2-yl)methoxy)carbonyl)amino)-2-(4-(trifluoromethyl)phenyl)ethyl)boronic acid]
IC50 [1]: 2930 nM | IC50 [2]: 2.6 nM

Cc1ccc(C[C@H](NC(=O)OC[C@H]2[C@H]3C[C@H]3CN2C(=O)C(C#N)=CC(C)(C)N2CCC(F)(F)C2)B(O)O)cc1 [Example 116, ((R)-1-(((((1S,2R,5R)-3-(2-cyano-4-(3,3-difluoropyrrolidin-1-yl)-4-methylpent-2-enoyl)-3-azabicyclo[3.1.0]hexan-2-yl)methoxy)carbonyl)amino)-2-(p-tolyl)ethyl)boronic acid]
IC50 [1]: > 5000 nM | IC50 [2]: 62 nM

CC(C)(C=C(C#N)C(=O)N1CCC[C@]1(C)COC(=O)N[C@@H](Cc1coc2ccccc12)B(O)O)N1CCC(F)(F)C1 [Example 117, ((R)-2-(benzofuran-3-yl)-1-(((((R)-1-(2-cyano-4-(3,3-difluoropyrrolidin-1-yl)-4-methylpent-2-enoyl)-2-methylpyrrolidin-2-yl)methoxy)carbonyl)amino)ethyl)boronic acid]
IC50 [1]: 640 nM | IC50 [2]: 0.8 nM

CC(C)(C)C[C@H](NC(=O)OC[C@@]1(C)CCCN1C(=O)C(C#N)=CC(C)(C)N1CCC(F)(F)C1)B(O)O [Example 118, ((R)-1-(((((R)-1-(2-cyano-4-(3,3-difluoropyrrolidin-1-yl)-4-methylpent-2-enoyl)-2-methylpyrrolidin-2-yl)methoxy)carbonyl)amino)-3,3-dimethylbutyl)boronic acid]
IC50 [1]: 570 nM | IC50 [2]: 1.5 nM

CC1(C=C(C#N)C(=O)N2C[C@@H]3C[C@@H]3[C@@H]2COC(=O)N[C@@H](Cc2ccc(F)cc2)B(O)O)CCOCC1 [Example 119, ((R)-1-(((((1S,2R,5R)-3-(2-cyano-3-(4-methyltetrahydro-2H-pyran-4-yl)acryloyl)-3-azabicyclo[3.1.0]hexan-2-yl)methoxy)carbonyl)amino)-2-(4-fluorophenyl)ethyl)boronic acid]
IC50 [1]: > 5000 nM | IC50 [2]: > 5000 nM

Reference: US11154563B2, “Immunoproteasome inhibitors” (Principia Biopharma Inc., priority 2017, dated 2021)
